Experimental data from patent publication US12577239B2, “Sulfilimines or sulfoximines containing fungicidal heterocyclic compounds” (PI INDUSTRIES LTD., priority 2019, dated 2026).

The compounds below were run on Phytophthora infestans (assay: microbe, parasite or virus in culture). Details: 168 h, read-out: control compared to the untreated check.
Assay type: cell-based

For CS(=N)(=O)c1cccc(Cl)c1C1CC(c2csc(C3CCN(C(=O)Cn4nc(C(F)F)cc4C(F)F)CC3)n2)=NO1 (centres unmarked) [Compound 3, (2-(3-(2-(1-(2-(3,5-bis (difluoromethyl)-1H-pyrazol-1-yl)acetyl)piperidin-4-yl)thiazol-4-yl)-4,5-dihydroisoxazol-5-yl)-3-chlorophenyl) (imino) (methyl)-λ^6-sulfanone], which inhibition of growth at 30 ppm is on record?
The inhibition of growth at 30 ppm was ≥ 70%.

With CS(=N)(=O)c1cccc(Cl)c1C1CC(c2csc(C3CCN(C(=O)Cn4cc(Cl)cc(C(F)(F)F)c4=O)CC3)n2)=NO1 (centres unmarked) [Compound 1, 5-chloro-1-(2-(4-(4-(5-(2-chloro-6-(S-methylsulfonimidoyl)phenyl)-4,5-dihydroisoxazol-3-yl)thiazol-2-yl)piperidin-1-yl)-2-oxoethyl)-3-(trifluoromethyl)pyridin-2(1H)-one] as the compound, how does the inhibition of growth at 30 ppm read?
The inhibition of growth at 30 ppm was ≥ 70%.

For CS(=N)(=O)c1cccc(C#N)c1C1CC(c2csc(C3CCN(C(=O)Cn4nc(C(F)F)cc4C(F)F)CC3)n2)=NO1 (centres unmarked) [Compound 164], which inhibition of growth at 30 ppm is on record?
The inhibition of growth at 30 ppm was ≥ 70%.

With CC(C)S(=N)(=O)c1cccc(Cl)c1C1CC(c2csc(C3CCN(C(=O)Cn4ccnc(C(F)(F)F)c4=O)CC3)n2)=NO1 (centres unmarked) [Compound 64] as the compound, how does the inhibition of growth at 30 ppm read?
The inhibition of growth at 30 ppm was ≥ 70%.

Which inhibition of growth at 30 ppm does the source give for CN=S(C)(=O)c1cccc(Cl)c1C1CC(c2csc(C3CCN(C(=O)Cn4c(C)ccc(C(F)(F)F)c4=O)CC3)n2)=NO1 (centres unmarked) [Compound 174] here?
The inhibition of growth at 30 ppm was ≥ 70%.

With Cc1cc(C(F)(F)F)nn1CC(=O)N1CCC(c2nc(C3=NOC(c4c(F)cccc4N=S(C)(C)=O)C3)cs2)CC1 (centres unmarked) [Compound 6, ((3-fluoro-2-(3-(2-(1-(2-(5-methyl-3-(trifluoromethyl)-1H-pyrazol-1-yl)acetyl)piperidin-4-yl)thiazol-4-yl)-4,5-dihydroisoxazol-5-yl)phenyl)imino)dimethyl-λ^6-sulfanone] as the compound, how does the inhibition of growth at 30 ppm read?
The inhibition of growth at 30 ppm was ≥ 70%.

CS(=N)(=O)c1cccc(Cl)c1C1CC(c2csc(C3CCN(C(=O)Cn4cc(C(F)(F)F)ccc4=O)CC3)n2)=NO1 (centres unmarked) [Compound 169, 1-(2-(4-(4-(5-(2-chloro-6-(S-methylsulfonimidoyl)phenyl)-4,5-dihydroisoxazol-3-yl)thiazol-2-yl)piperidin-1-yl)-2-oxoethyl)-5-(trifluoromethyl)pyridin-2(1H)-one] was tested. Which inhibition of growth at 30 ppm did it give?
The inhibition of growth at 30 ppm was ≥ 70%.

Which inhibition of growth at 30 ppm does the source give for CS(=N)(=O)c1cccc(Cl)c1C1CC(c2csc(C3CCN(C(=O)Cn4cc(C(F)(F)F)cc(Cl)c4=O)CC3)n2)=NO1 (centres unmarked) [Compound 2, 3-chloro-1-(2-(4-(4-(5-(2-chloro-6-(S-methylsulfonimidoyl)phenyl)-4,5-dihydroisoxazol-3-yl)thiazol-2-yl)piperidin-1-yl)-2-oxoethyl)-5-(trifluoromethyl)pyridin-2(1H)-one] here?
The inhibition of growth at 30 ppm was ≥ 70%.
